Test results published in US12415799B2, “Indazole-fused cyclic compound” (Zhejiang Yangli Pharmaceutical Technology Co., Ltd., priority 2020, dated 2025).
pIC50: −log10 of the molar value. Where two headings read alike, the source gives them in different places.

What was measured:
ERα = ERα (Homo sapiens (Human), UniProt P03372); test: Degradation experiment of MCF-7 ERα (ELISA); format: cell-based; details: MCF-7 cell line, 4 hours incubation, total ERα ELISA; read-out: IC50 value of promoting ERα degradation
Chain of ERα (P03372 whole entry): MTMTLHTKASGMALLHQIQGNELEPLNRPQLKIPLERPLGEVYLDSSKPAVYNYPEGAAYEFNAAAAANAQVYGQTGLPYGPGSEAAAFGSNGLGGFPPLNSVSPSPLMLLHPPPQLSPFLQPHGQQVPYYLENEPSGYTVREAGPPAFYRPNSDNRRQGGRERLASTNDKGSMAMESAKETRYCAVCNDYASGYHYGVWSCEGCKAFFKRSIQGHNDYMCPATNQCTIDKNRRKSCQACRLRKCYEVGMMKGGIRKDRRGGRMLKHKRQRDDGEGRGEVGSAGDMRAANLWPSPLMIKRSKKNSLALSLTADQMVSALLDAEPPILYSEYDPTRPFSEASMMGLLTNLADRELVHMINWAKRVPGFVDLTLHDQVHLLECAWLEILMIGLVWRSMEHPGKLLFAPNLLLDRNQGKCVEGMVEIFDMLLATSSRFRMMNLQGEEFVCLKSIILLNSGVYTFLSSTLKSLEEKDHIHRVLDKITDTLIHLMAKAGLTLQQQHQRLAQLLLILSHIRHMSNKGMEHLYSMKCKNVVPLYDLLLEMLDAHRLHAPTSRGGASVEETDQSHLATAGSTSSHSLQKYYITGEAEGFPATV
Text: (2) Degradation Experiment of MCF-7 ERα Experimental Materials:
Phenol red-free MEM culture medium was purchased from Wisent, fetal bovine serum was purchased from Biosera, and Human Total ERα/NR3A1 ELISA kit was purchased from R&D. MCF-7 cell line was purchased from Cell Bank of Type Culture Collection of Chinese Academy of Sciences. Nivo5 multi-label analyzer (PerkinElmer).
MCF-7 cells were resuspended in culture medium (phenol red-free MEM+5% charcoal/dextran-treated fetal bovine serum+1% penicillin-streptomycin double antibody solution), and seeded in a clear 96-well cell culture plate with 80 μL per well containing 20,000 cells, and the cell culture plate was incubated overnight in a carbon dioxide incubator;
ELISA plate was coated with strips, human total estrogen receptor a capture antibody was diluted with 1×PBS with a final concentration of 1 μg/mL, and 100 μL of mixture was added to each well, and incubated overnight at 25° C.
Cell administration: The test compound was diluted to the 8th concentration with a multi-channel pipette, and the compound concentration was 20 μM and 4 μM, and then diluted to the 8th concentration of 0.256 nM in turn, and a double-duplicate experiment was set-up. 78 μL of culture medium was added to the middle plate, then 2 μL of gradient dilution compound per well was transferred to the middle plate according to the corresponding position, and 20 μL of the mixture per well was mixed evenly and transferred to the cell plate, and the final concentration of DMSO was 0.5%, and the mixture was incubated at 37° C. for 4 hours;
preparation of standard curve solution: 110 ng/mL of standard curve storage solution was 6-fold diluted with buffer (1×PBS containing 1 mM EDTA, 0.5% Triton X-100, pH 7.2 to 7.4) to obtain a solution with a concentration of 18.3 ng/mL, and then 91.5-fold diluted with buffer (1×PBS containing 1 mM EDTA, 0.5% Triton X-100, 1 M urea, pH 7.2 to 7.4) to obtain a solution with a concentration of 0.2 ng/mL, and 8-point gradient dilution was performed using buffer (1×PBS containing 1 mM EDTA, 0.5% Triton X-100, 1 M urea, pH 7.2 to 7.4) with a final concentration of […].
1×PBS was pre-cooled, and after the incubation of the compound, the supernatant was removed, and then the plate was washed with 250 μL of pre-cooled 1×PBS per well, then 30 µL of cell lysate per well (1×PBS containing 1 mM EDTA, 0.5% Triton X-100, 6 M urea, 1 mM active sodium orthovanadate, 2.5 mM sodium pyrophosphate, lx protease inhibitor, pH 7.2 to 7.4) was added, and lysed on ice for 15 minutes;
after cell was lysed in the cell plate, the cell lysate was 6-fold diluted with 150 μL of buffer (1×PBS containing 1 mM EDTA, 0.5% Triton X-100, pH 7.2 to 7.4) per well, and the mixture was mixed evenly by blowing with a multi-channel pipette, and 100 μL of solution per well was transferred to the ELISA plate;
the human total estrogen receptor a detection antibody stock solution (14.4 μg/mL) was 36-fold diluted with buffer (1×PBS containing 1% bovine serum albumin), and the final concentration of the detection antibody was 400 ng/mL, and 100 μL of the solution per well was transferred to the ELISA plate and incubated at 25° C. for 2 hours;
Data analysis: A, B, C and D in the four-parameter equation y=(A−D)/[1+(x/C)^B]+D were calculated according to the original data of the standard curve, wherein, y was the original OD450 value, x was the concentration of the corresponding point of the standard curve. According to the four-parameter equation and the OD450 reading of the original data of the sample, the concentration of ERα at the corresponding point was calculated. The equation (Sample−Min)/(Max−Min)×100% was used to convert the original data into inhibition rate, and the IC50 value could be obtained by curve fitting with four parameters (obtained by “log (inhibitor) vs. response—variable slope” mode in GraphPad Prism).
Max wells: Positive control wells reading at 100 nM Fulvestrant-treated cell wells […]

CYP1A2 = CYP1A2 (Homo sapiens (Human), UniProt P05177); format: in vitro ADME; details: microsomes
Chain of CYP1A2 (P05177 whole entry): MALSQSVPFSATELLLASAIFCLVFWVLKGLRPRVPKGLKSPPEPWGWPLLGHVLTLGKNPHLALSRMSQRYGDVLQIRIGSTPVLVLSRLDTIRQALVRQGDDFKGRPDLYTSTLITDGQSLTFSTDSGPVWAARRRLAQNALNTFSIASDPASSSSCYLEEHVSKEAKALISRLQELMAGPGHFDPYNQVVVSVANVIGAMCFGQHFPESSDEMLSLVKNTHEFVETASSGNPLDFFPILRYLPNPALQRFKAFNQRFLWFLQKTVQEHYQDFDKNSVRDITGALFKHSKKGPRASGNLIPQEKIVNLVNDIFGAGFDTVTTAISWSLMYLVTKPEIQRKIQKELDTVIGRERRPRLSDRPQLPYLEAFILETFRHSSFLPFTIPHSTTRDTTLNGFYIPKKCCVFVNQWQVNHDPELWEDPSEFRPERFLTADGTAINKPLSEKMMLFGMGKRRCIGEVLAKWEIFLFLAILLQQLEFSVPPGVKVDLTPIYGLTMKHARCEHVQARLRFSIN
Protocol: Experimental purposes: To test the inhibitory effect of test compound on the activity of human liver microsomal cytochrome P450 isoenzymes (CYP1A2 and CYP3A4) (Corning, Co., Ltd.).
Experimental operation: Firstly, the test compound (10 mM) was subjected to gradient dilution to prepare a working solution (100×final concentration), and the concentration of the working solution was: 5, 1.5, 0.5, 0.15, 0.05, 0.015 and 0.005 mM, respectively, and the working solution of each positive inhibitor of P450 isoenzyme (CYP1A2 and CYP3A4) and its specific substrate mixture (5 in 1) were prepared; and then the human liver microsomes frozen in the −80° C. refrigerator were thawed on ice, and all the human liver microsomes were dissolved, diluted with PB, and a certain concentration of working solution (0.253 mg/mL) was prepared; 20 μL of substrate mixture was added to the reaction plate (20 μL of PB was added to the blank well), while 158 μL of human liver microsomal working solution was added to the reaction plate, and the reaction plate was placed on ice for later use; at this time, 2 μL of various concentrations of the test compound (N=1) and specific inhibitor (N=2) were added to the corresponding well, and the corresponding organic solvent was added to the non-inhibitor (test compound or positive inhibitor) group as a control group sample (a ratio of DMSO:MeOH in the test compound control sample was 1:1, a ratio of DMSO:MeOH in the positive control sample was 1:9); after pre-incubation in a water bath at 37° C. for 10 min, 20 μL of coenzyme factor (NADPH) solution was added to the reaction plate, and incubated in a water bath at 37° C. for 10 min; and 400 μL of cold acetonitrile solution (internal standard was 200 ng/mL tolbutamide and labetalol) was added to terminate the reaction; the reaction plate was placed on a shaker and shaked for 10 minutes; and then centrifuged at 4,000 rpm for 20 minutes; 200 μL of the supernatant was taken and added to 100 μL of water for sample dilution; finally the plate was sealed, shaked and shaked well, for LC/MS/MS detection.

| DC50 (ERα) [nM] | pIC50 (CYP1A2; human, 10 min) | pIC50 (ERα) | pIC50 (CYP1A2) | SMILES |
| --- | --- | --- | --- | --- |
| 0.2 | < 4.30 | – | – | FCCCN1CC(Nc2ccc(C3=C(CC(F)(F)F)CCCc4c3ccc3[nH]nc(F)c43)nc2)C1 [Compound 2] |
| – | – | 9.64 | < 4.30 | FCCCN1CC[C@H](Nc2cnc(C3=C(CC(F)(F)F)CCCc4c3ccc3[nH]nc(F)c43)cn2)C1 [Compound 11A] |
